From patent US20090142811A1, “Discovery, Cloning and Purification of Thermococccus sp. (Strain 9 Degrees N-7) Dna Ligase” (New England Biolabs, Inc., priority 2005, published 2009) come the findings set out here.

The target of the test is T1, Thermococcus sp. (strain 9° N-7) DNA ligase, clone B2, SEQ ID NO:15 (Thermococcus nautili, UniProt W8P6M3).
T1 construct: E. coli BL21(DE3)-RIL; purified
T1 sequence (W8P6M3 with tags, fused parts or gaps): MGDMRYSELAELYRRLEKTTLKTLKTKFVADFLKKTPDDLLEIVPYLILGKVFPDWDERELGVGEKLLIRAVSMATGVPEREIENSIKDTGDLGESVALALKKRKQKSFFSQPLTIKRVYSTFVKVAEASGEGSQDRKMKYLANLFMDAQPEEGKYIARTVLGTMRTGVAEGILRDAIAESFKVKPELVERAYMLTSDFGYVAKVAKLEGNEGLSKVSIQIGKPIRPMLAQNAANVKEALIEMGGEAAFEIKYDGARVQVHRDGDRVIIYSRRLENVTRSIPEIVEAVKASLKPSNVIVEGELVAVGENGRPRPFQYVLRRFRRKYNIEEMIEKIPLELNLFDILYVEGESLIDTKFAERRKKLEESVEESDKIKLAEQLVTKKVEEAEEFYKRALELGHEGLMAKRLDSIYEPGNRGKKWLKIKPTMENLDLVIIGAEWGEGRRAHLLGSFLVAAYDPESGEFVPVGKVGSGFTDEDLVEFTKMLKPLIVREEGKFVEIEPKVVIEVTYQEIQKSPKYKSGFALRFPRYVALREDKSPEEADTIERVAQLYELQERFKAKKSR
The experiment in a line: Km for ATP of purified Thermococcus sp. (strain 9° N-7) DNA ligase (ligation of lambda DNA). Conditions: typical assay: predigested lambda DNA substrate, 45° C.; recommended 10 mM Tris-HCl pH 7.5, 2.5 mM MgCl2, 2.5 mM DTT. The class given is biochemical. Here is the method: The recommended reaction conditions are:
The typical substrate for assaying activity at 45° C. is lambda DNA. Appropriately digested lambda DNA can reveal the state of ligation of the 12-base extension at the termini of lambda DNA. We typically used either a HindIII or BstEII predigested lambda DNA. Analysis of the ligation was performed on agarose gel electrophoresis.

Bounds are passed on as bounds.

As to `Nc1ncnc2c1ncn2[C@@H]1O[C@H](COP(=O)(O)OP(=O)(O)OP(=O)(O)O)[C@@H](O)[C@H]1O` [ATP], the Km (as a rule, the concentration of substrate that gives half-maximal velocity) was less than 100 µM.
